“And” between values parts separate entries of the source, which are not always exact repeats. Equal values may be shown once. Read-outs that look alike come from different tables or passages of the source. No end group written: not given here. Some results are limits rather than exact numbers.

The target in series [1] is T1, GmPOPB-S577A (inactive mutant) (Galerina marginata, UniProt H2E7Q8, S577A).
T1 construct: His-tag (TEV-cleavable) (cleaved yes); made in house; host or cells: E. coli BL21(DE3)
T1 sequence (H2E7Q8 1-730 S577A): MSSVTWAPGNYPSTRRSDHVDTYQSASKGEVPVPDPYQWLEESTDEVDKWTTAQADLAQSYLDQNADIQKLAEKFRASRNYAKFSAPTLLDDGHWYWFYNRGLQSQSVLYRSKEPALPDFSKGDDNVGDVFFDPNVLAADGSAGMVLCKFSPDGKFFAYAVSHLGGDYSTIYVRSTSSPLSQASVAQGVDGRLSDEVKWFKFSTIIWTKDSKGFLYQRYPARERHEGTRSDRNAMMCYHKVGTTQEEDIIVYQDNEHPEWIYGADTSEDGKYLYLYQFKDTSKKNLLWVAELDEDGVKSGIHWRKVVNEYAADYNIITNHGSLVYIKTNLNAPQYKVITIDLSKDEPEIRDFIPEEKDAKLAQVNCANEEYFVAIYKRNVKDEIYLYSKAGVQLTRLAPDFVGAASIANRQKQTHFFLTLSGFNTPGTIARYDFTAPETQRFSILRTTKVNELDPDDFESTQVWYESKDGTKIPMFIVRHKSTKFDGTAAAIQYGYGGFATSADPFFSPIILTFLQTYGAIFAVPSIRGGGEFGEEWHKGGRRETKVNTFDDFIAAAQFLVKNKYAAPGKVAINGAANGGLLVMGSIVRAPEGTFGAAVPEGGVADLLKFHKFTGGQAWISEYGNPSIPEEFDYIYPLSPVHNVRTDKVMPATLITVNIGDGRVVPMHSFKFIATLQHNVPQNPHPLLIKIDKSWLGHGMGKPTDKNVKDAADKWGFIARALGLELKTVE
The experiment in a line: Isothermal titration calorimetry, peptide binding to inactive mutant GmPOPB_S577A. As to conditions: for -TΔS / ΔG / ΔH / Kd / Binding detected by ITC: ITC; for -TΔS / ΔG / ΔH / Kd: 20 °C; for -TΔS / ΔG / ΔH: average ± SEM; for Kd: peptide titrated into GmPOPB_S577A, 50 mM Tris pH 8.0, 50 mM NaCl, 10 mM DTT, single-site model, n fixed at 1.0, average ± SEM of at least 2 measurements; for Binding detected by ITC: peptide concentrations up to 1 mM. For orientation: Isothermal titration calorimetry measures the heat released or taken up as one component is titrated into another.

Series [2] has as its system CC[C@H](C)[C@H](N)C(=O)N[C@@H](Cc1c[nH]c2ccccc12)C(=O)NCC(=O)N[C@H](C(=O)NCC(=O)N[C@@H](CS)C(=O)N[C@@H](CC(N)=O)C(=O)N1CCC[C@H]1C(=O)N[C@@H](Cc1c[nH]c2ccccc12)C(=O)N[C@H](C(=O)N[C@@H](C)C(=O)N[C@@H](CCC(=O)O)C(=O)N[C@@H](Cc1c[nH]cn1)C(=O)O)[C@@H](C)O)[C@@H](C)CC. Description: purified protein, by the assay type. The settings on record: pH 8.0.
Method: (§1) Comparison between distinct substrates was performed in 50 mM Tris pH 8.0, 50 mM NaCl, 10 mM DTT with varying concentrations of substrates at room temperature. All reactions were performed in duplicates. Reactions were started by adding GmPOPB (50 nM for GmAMA1_C6S, 1 μM for the 13mer and 14mer, and 20 nM for other substrates) to the assay mixture containing buffer and peptide. Reactions were quenched at several time points by adding 50 μL reaction mixture to 20 μL 6% TFA. Reactants were separated from products for quantification by injecting 50 μL of each quenched time point mix onto a ZORBAX SB-C18, 5 µm, 9.4 × 50 mm (Agilent) column connected to an Agilent LC-MS (G6130B Single Quad, Agilent Technologies). Reactants were separated from products using a gradient from H2O containing 0.1% TFA or 0.1% formic acid and 5% acetonitrile to 50% acetonitrile, at 1.5 ml/min for 8 min. […] The sum of product+substrate was assumed equal to the total initial amount of substrate, product converted from % to concentration. This value was divided by concentration of enzyme present to yield v/E t (min^−1). […] For progress curves with the 35mer substrate, measurements were triplicate and quantification relied on ion counts from mass spectrometry. […] Authentic cyclic peptide was quantified by UV absorbance. […] Kinetic data were fitted to a Michaelis–Menten equation using GraphPad Prism, and values reported are average and standard error of the mean.
Series [3] concerns CC[C@H](C)[C@H](N)C(=O)N[C@@H](Cc1c[nH]c2ccccc12)C(=O)NCC(=O)N[C@H](C(=O)NCC(=O)N[C@@H](CS)C(=O)N[C@@H](CC(N)=O)C(=O)N1CCC[C@H]1C(=O)N[C@@H](Cc1c[nH]c2ccccc12)C(=O)N[C@H](C(=O)N[C@@H](C)C(=O)N[C@@H](CCC(=O)O)C(=O)N[C@@H](Cc1c[nH]cn1)C(=O)N[C@H](C(=O)O)C(C)C)[C@@H](C)O)[C@@H](C)CC. The experiment in a line: purified protein, by the assay type. The settings on record: pH 8.0.
Method: as §1
For series [4], the system named is CC[C@H](C)[C@H](NC(=O)CNC(=O)[C@H](Cc1c[nH]c2ccccc12)NC(=O)[C@@H](NC(=O)[C@@H]1CCCN1C(=O)[C@H](CC(C)C)NC(=O)[C@H](CCCNC(=N)N)NC(=O)[C@@H](NC(=O)[C@H](C)NC(=O)[C@H](CC(N)=O)NC(=O)[C@@H](NC(=O)[C@H](CC(=O)O)NC(=O)[C@H](Cc1ccccc1)NC(=O)[C@@H](N)CCSC)[C@@H](C)O)[C@@H](C)O)[C@@H](C)CC)C(=O)NCC(=O)N[C@@H](CS)C(=O)N[C@@H](CC(N)=O)C(=O)N1CCC[C@H]1C(=O)N[C@@H](Cc1c[nH]c2ccccc12)C(=O)N[C@H](C(=O)N[C@@H](C)C(=O)N[C@@H](CCC(=O)O)C(=O)N[C@@H](Cc1c[nH]cn1)C(=O)N[C@H](C(=O)N[C@@H](CC(=O)O)C(=O)N[C@@H](CCC(N)=O)C(=O)N[C@H](C(=O)N[C@@H](CC(C)C)C(=O)N[C@@H](C)C(=O)N[C@@H](CO)C(=O)NCC(=O)N[C@@H](CC(N)=O)C(=O)N[C@@H](CC(=O)O)C(=O)N[C@H](C(=O)N[C@@H](CS)C(=O)O)[C@@H](C)CC)[C@@H](C)O)C(C)C)[C@@H](C)O. Description: purified protein, by the assay type. The settings on record: pH 8.0.
Method: as §1

Series [5] can be described thus: Peptide solubility when preparing ITC ligand solutions. It counts as physicochemical. The settings on record: peptide ligand solution for ITC. As to the method: Supplementary Table 3 Thermodynamic parameters obtained by ITC.
Peptide Sequence Kd (μM) ΔG ΔH -TΔS N
(kcal mol-1) (kcal mol-1) (kcal mol-1) measurements
9mer IW GIGCNPW ND ND ND ND
ND – peptide solubility was lower than 300 μM and measurements could not be
Errors reported are standard error of the mean using the replicates indicated in the
table and the fitted values using Malvern data analysis software.

In series [6] the target is T1, GmPOPB-S577A (inactive mutant). As to conditions: ITC, GmPOPB_S577A, cited from earlier work. An excerpt: Peptide Sequence Kd (μM) ΔG ΔH -TΔS N (kcal mol-1) (kcal mol-1) (kcal mol-1) measurements 9mer IW GIGCNPW ND ND ND ND 10mer IW GIGCNPW T 83 ± 17 -5.5 ± 0.1 -3.1 ± 0.5 -2.4 ± 0.3 2 11mer IW GIGCNPW TA 39 ± 18 -5.9 ± 0.3 -1.5 ± 0.7 […] 2 12mer IW GIGCNPW TAE 21 ± 5 -6.3 ± 0.1 -1.0 ± 0.3 -5.3 ± 0.4 2 13mer IW GIGCNPW TAEH 2.4 ± 0.1 -7.3 ± 0.1 -0.6 ± 0.2 -6.9 ± 0.2 2 14mer IW GIGCNPW TAEHV 9.5 ± 1.1 -6.7 ± 0.1 -0.9 ± 0.2 -5.8 ± 0.2 2 9mer- […] 121 ± 19 -5.3 ± 0.1 -6.4 ± 1.6 2.6 ± 1.5 3 recognition sequence 12mer- ...

Series [7] addresses T2, GmPOPB-S577A (Galerina marginata, UniProt H2E7Q8, S577A).
T2 sequence: T1 sequence (H2E7Q8 1-730 S577A)
The experiment in a line: ITC. The settings on record: both partners purified.

Setting [8] is: average ± SEM, previously published ref 21.

As to `CC[C@H](C)[C@H](NC(=O)CNC(=O)[C@H](Cc1c[nH]c2ccccc12)NC(=O)[C@@H](NC(=O)[C@@H]1CCCN1C(=O)[C@H](CC(C)C)NC(=O)[C@H](CCCNC(=N)N)NC(=O)[C@@H](NC(=O)[C@H](C)NC(=O)[C@H](CC(N)=O)NC(=O)[C@@H](NC(=O)[C@H](CC(=O)O)NC(=O)[C@H](Cc1ccccc1)NC(=O)[C@@H](N)CCSC)[C@@H](C)O)[C@@H](C)O)[C@@H](C)CC)C(=O)NCC(=O)N[C@@H](CS)C(=O)N[C@@H](CC(N)=O)C(=O)N1CCC[C@H]1C(=O)N[C@@H](Cc1c[nH]c2ccccc12)C(=O)N[C@H](C(=O)N[C@@H](C)C(=O)N[C@@H](CCC(=O)O)C(=O)N[C@@H](Cc1c[nH]cn1)C(=O)N[C@H](C(=O)N[C@@H](CC(=O)O)C(=O)N[C@@H](CCC(N)=O)C(=O)N[C@H](C(=O)N[C@@H](CC(C)C)C(=O)N[C@@H](C)C(=O)N[C@@H](CO)C(=O)NCC(=O)N[C@@H](CC(N)=O)C(=O)N[C@@H](CC(=O)O)C(=O)N[C@H](C(=O)N[C@@H](CS)C(=O)O)[C@@H](C)CC)[C@@H](C)O)C(C)C)[C@@H](C)O` [35mer], in series [1] (GmPOPB_S577A), the “-TΔS” value is -5.02 ± 1.7 kJ/mol and the ΔG is -38.9 ± 0.42 kJ/mol.

The Km is the concentration of substrate that gives half-maximal velocity. One may read the kcat as the maximal rate divided by the concentration of active sites. For orientation: kcat/Km means the second-order rate constant that governs catalysis at low substrate concentration. For GmPOPB (Galerina marginata CBS 339.88), in series [2], the Km is 24.4 ± 5.2 µM and 25 µM; the kcat is 0.00817 ± 0.0005 s⁻¹ and 0.00817 s⁻¹; the specificity constant (kcat/Km) is 333 ± 67 M⁻¹ s⁻¹. Moreover, in series [3], the Km worked out at 380 µM, the kcat was 0.00967 s⁻¹ and the kcat/Km stood at 16.7 ± 1.7 M⁻¹ s⁻¹. In series [4], the Km was determined as 23 ± 11 µM, the kcat was determined as 0.0533 ± 0.0067 s⁻¹ and the catalytic efficiency (kcat/Km) turned out to be 2330 ± 1200 M⁻¹ s⁻¹.

Broadly, the solubility is the dissolved amount per volume that the medium holds. The low end stands for little dissolved substance, the high end for much dissolved substance. Take IWGIGCNPW [9mer]: the solubility in series [5] (aqueous buffer, Tris pH 8.0 buffer with DTT) is less than 300 µM. The “Peptide solubility” value in series [5] is on record as “not sufficiently soluble for analysis”.

A word on the Kd: it is the concentration at which binding is half-saturated. With IWGIGCNPWT [10mer], in series [1] (GmPOPB_S577A), the “-TΔS” value was -10 ± 1.3 kJ/mol, the ΔG was -23 ± 0.42 kJ/mol and the ΔH is -13 ± 2.1 kJ/mol. In series [1], this molecule had a Kd of 83 ± 17 µM.

In series [1] (GmPOPB_S577A), IWGIGCNPWTA [11mer] yielded a ΔG of -24.7 ± 1.3 kJ/mol and a ΔH of -6.28 ± 2.9 kJ/mol. This molecule also gave a Kd in series [1] of 39 ± 18 µM.

IWGIGCNPWTAE [12mer]: in series [1] (GmPOPB_S577A), the “-TΔS” value was -22.2 ± 1.7 kJ/mol, the ΔG is -26.4 ± 0.42 kJ/mol and the ΔH is -4.18 ± 1.3 kJ/mol. In addition, in series [1], binding was characterised by a dissociation constant (Kd) of 21 ± 5 µM.

Consider IWGIGCNPWTAEH [13mer], for which, in series [1] (GmPOPB_S577A), the “-TΔS” value is -28.9 ± 0.84 kJ/mol, the ΔG was -30.5 ± 0.42 kJ/mol and the ΔH was -2.5 ± 0.84 kJ/mol. Moreover, the Kd in series [1] is 2.4 ± 0.1 µM. The “Difference in affinity (reduction in binding) between the 35mer and the 13mer” value in series [1] (ratio of ITC Kd values, GmPOPB_S577A) is on record as ~ 20 fold.

In the case of MFDTNATRLP [leader peptide], the “Binding detected by ITC” value in series [1] (GmPOPB_S577A) is reported as “no detectable binding”; in series [1] (GmPOPB_S577A, listed as 10-residue leader), “does not bind”.

With TLASGNDIC [9mer-recognition sequence], in series [1] (GmPOPB_S577A), the “-TΔS” value turned out to be 10.9 ± 6.28 kJ/mol, the ΔG is -22.2 ± 0.42 kJ/mol and the ΔH was -26.8 ± 6.69 kJ/mol.

On to “VDQTLASGNDIC [12mer-recognition sequence]”, for which, in series [1] (GmPOPB_S577A), the “-TΔS” value was 68.2 ± 12.6 kJ/mol, the ΔG was -29.7 ± 0.42 kJ/mol and the ΔH is -98.3 ± 13 kJ/mol.

As to “WTAEHVDQTLASGNDIC [17mer-recognition sequence]”, the Kd in series [6] (20 °C, 50 mM Tris pH 8.0, 50 mM NaCl, 10 mM DTT, average ± SEM, previously published ref 21) is 0.43 ± 0.01 µM. Further, in series [6] (setting [8]), the “-TΔS” value was 7.11 ± 1.7 kJ/mol, the ΔG was -35.6 ± 0.42 kJ/mol and the ΔH was -42.7 ± 1.7 kJ/mol. Also, in series [6], the “Difference in ΔG between the 17mer recognition sequence and the 25mer peptide” value was 5.61 kJ/mol. Besides, the Kd in series [6] (previously published ref 21) was 0.43 ± 0.01 µM.

Consider TLASGNDIC [truncated recognition sequence TLASGNDIC (9 residues)], for which the equilibrium dissociation constant (Kd) in series [7] stood at 121 µM.

In turn, VDQTLASGNDIC [truncated recognition sequence VDQTLASGNDIC (12 residues)] came in with a Kd in series [7] of 5 µM.

Source of the values: paper PMC5648786, “Characterization of a dual function macrocyclase enables design and use of efficient macrocyclization substrates” (Nature Communications, 2017).
